Measured values: patent publication US9616006B2, “Methods and compositions for treating dermatological diseases and conditions” (priority 2007, dated 2017)

What was measured:
[1] = tested on: IL-12; assay: TNF-α-induced IL-12 production in monocytes; type: cell-based; conditions: Monocyte, read-out: Percent Inhibition of IL-12
Text: (§1) DHE and IE both have inhibitory effects on the production of the inflammatory mediators in monocytes.

[2] = tested on: HAS-2 (Hyaluronic acid synthase-2); assay: HAS-2 mRNA in fibroblasts by RT-PCR; type: cell-based, human; conditions: 72 hours
Text: (§2) The presently claimed and disclosed inventive concept(s) further contemplates use of various DHE, IE and EV compositions and salts, esters, ethers, and derivatives thereof to mitigate the effects of aging on the skin. For all aging studies, normal human fibroblast cell cultures were used. These cells normally produce collagen, elastin and hyaluronic acid. As the skin ages, the fibroblasts in the dermis lose their ability to produce these three key components of skin, and the skin consequently loses elasticity, thickness and smooth texture. In addition, as fibroblasts age, they increase the expression of certain enzymes that destroy collagen and elastin. There are about 13 of these enzymes, collectively referred to as MMPs (matrix metalloproteinases). One of the principal MMPs, MMP-1, is responsible for collagen degradation. For experiments herein to determine the effects of DHE, IE and EV on collagen, elastin and hyaluronic acid, fibroblasts were treated with the compounds for 72 hours, mRNA was then isolated, and analyzed for abundance by RT-PCR (Reverse transcriptase-Polymerase Chain Reaction).
DHE, IE and EV, are also shown herein to stimulate mRNA for HAS-2. HAS-2 (Hyaluronic acid synthase-2) is the enzyme that manufactures hyaluronic acid (HA) in the skin. HA is a glycosaminoglycan important for maintaining moisture and suppleness in the skin. […] As the skin ages, the production of HA decreases and this causes the skin to sag and become thin.

[3] = tested on: tyrosinase; assay: Melanin synthesis in vitro from L-DOPA catalyzed by tyrosinase (test tube); type: biochemical
Description: Two ml of a sodium phosphate buffer, pH 6.8 containing 0.2% L-DOPA (dihydroxyphenylalanine—a tyrosinase substrate) were placed in each of two test tubes. To one test tube was added 20 microliters of ethanol and to the other tube was added 20 microliters of a 1M stock of IE made up in ethanol (labeled TH-212). To start melanin synthesis from the L-DOPA substrate, 20 microliters of a tyrosinase preparation (0.5 mg/ml) was added to both tubes, the tubes were mixed and left at room temperature. The photograph in FIG. 13 was taken 2 hours after the start of the reaction.

[4] = tested on: tyrosinase; assay: DOPA oxidase assay of cell extracts from treated human melanocytes; type: cell-based; conditions: extracts of human melanocytes treated for 9 days
Description: Cell lysates were prepared from human melanocytes. The amount of tyrosinase in these cell lysates was determined by DOPA oxidase assay.
(§3) FIGS. 14-17 show the skin-lightening effects of topically-applied formulations of isoeugenol and its ester isoeugenol acetate (a.k.a. isoeugenyl acetate) in the treatment of hyperpigmented areas in the skin, wherein a reduction of melanin pigment in the skin is caused by the topical application of the formulations. In addition to blocking a post-tyrosinase step in melanin synthesis, IE and IE acetate can inhibit the expression of the tyrosinase protein in human melanocytes. […] If the cell extracts contain tyrosinase when an aliquot of extract is placed in a tube containing L-DOPA (a tyrosinase substrate) in buffer, the enzyme will convert the DOPA to melanin. The melanin will appear brownish-black in the assay tube. If IE or IE-acetate has inhibited tyrosinase synthesis in melanocytes, then the extracts from these cells will contain no enzyme and will not be able to produce melanin from DOPA in the assay tube. […] In this assay, cell extracts from human melanocytes either left untreated or treated with 200 micromolar of either IE or isoeugenol acetate for 9 days are run on SDS polyacrylamide electrophoresis gels to separate tyrosinase from other proteins. The tyrosinase in the gel is then blotted to a membrane and the tyrosinase detected by staining with a specific anti-tyrosinase antibody. The antibody-bound tyrosinase is then visualized by chemiluminescence.

[5] = tested on: IL-6; assay: TPA-induced IL-6 production in keratinocytes (ELISA); type: cell-based, human; conditions: Homo sapiens, Keratinocyte, read-out: Percent Inhibition of IL-6
[6] = tested on: TIMP-1; assay: TIMP-1 mRNA in fibroblasts by PCR; type: cell-based, human
Text: as §2
Fibroblasts in the skin not only produce enzymes (MMPs) that destroy the skin matrix but they also produce proteins (Tissue Inhibitors of Metalloproteinases, i.e., TIMPS) that inhibit these enzymes. There are several TIMPs, but one that is most important for inhibiting MMPs is TIMP-1. […] Shown in FIG. 11 is PCR data showing the up-regulation of TIMP-1 mRNA by these compounds.

[7] = tested on: IL-8; assay: IL-1-induced IL-8 production in fibroblasts (ELISA); type: cell-based, human; conditions: Homo sapiens, Fibroblast, Fibroblasts (IL-1), read-out: Percent Inhibition of IL-8
[8] = tested on: IL-6; assay: UV-induced IL-6 production in fibroblasts (ELISA); type: cell-based, human; conditions: Homo sapiens, Fibroblast, read-out: Percent Inhibition of IL-6
Description: (§4) In one study, various concentrations of DHE were added to culture medium and these media were placed on human fibroblast cell cultures (results shown in FIG. 1). Cells were either not induced or induced with UVB radiation to stimulate cytokine/PGE-2 production. At 24 hours after treatment, the cell culture medium was removed and assayed by ELISA methods for the expression of PGE-2, various cytokines and chemokines.
(§5) DHE and IE both have inhibitory effects on the production of the inflammatory mediators in fibroblasts.

[9] = tested on: IL-6; assay: IL-1-induced IL-6 production in fibroblasts (ELISA); type: cell-based, human; conditions: Homo sapiens, Fibroblast, Fibroblasts (IL-1), read-out: Percent Inhibition of IL-6
Description: as §4, with “Cells were either not induced or induced with UVB radiation to stimulate cytokine/PGE-2 production.” left out
as §5

[10] = tested on: tyrosinase; assay: Western immunoblot of tyrosinase abundance in human melanocyte extracts; type: cell-based
Text: as §3

[11] = tested on: TNF-α; assay: UV-induced TNF-α production in keratinocytes (ELISA); type: cell-based, human; conditions: Homo sapiens, Keratinocyte, read-out: Percent Inhibition of TNF-α
Description: as §4
(§6) When similar experiments were carried out with human keratinocytes, DHE was again found to markedly suppress the UVR induction of PGE-2, with a concentration of 50 uM inhibiting the production of PGE-2 by over 60% (results shown in FIG. 2). […] Further, since PGE-2 is known to be a principal factor in the development of actinic keratosis and skin cancer, DHE can also be used in treating these conditions.
(§7) DHE and IE both have inhibitory effects on production of the inflammatory mediators in keratinocytes.

[12] = tested on: IL-6; assay: UV-induced IL-6 production in keratinocytes (ELISA); type: cell-based, human; conditions: Homo sapiens, Keratinocyte, read-out: Percent Inhibition of IL-6
Description: as §4, §6, §7

[13] = tested on: IL-8; assay: TNF-α-induced IL-8 production in monocytes; type: cell-based; conditions: Monocyte, read-out: Percent Inhibition of IL-8
Text: as §1

[14] = tested on: IL-12; assay: LPS-induced IL-12 production in monocytes; type: cell-based; conditions: Monocyte, read-out: Percent Inhibition of IL-12
Text: as §1

In the case of `CC=Cc1ccc(O)c(OC)c1` [IE, isoeugenol], the inhibition at 100 µM [1] is reported as 100%, the “mRNA for HAS-2” value [2] is reported as “stimulate” and the melanin synthesis ([3]; 0.2% L-DOPA, pH 6.8, 20 microliters of 1M stock in 2 ml, tyrosinase, 2 hours, room temperature) is reported as “almost completely blocked”. The “darkening of test tubes (melanin production)” value ([3]; tubes containing DOPA, IE and tyrosinase, even after 2 weeks) was “fail to darken”, the “tyrosinase activity / melanin made from L-DOPA by cell extracts” value [4] was “very little melanin was made” and the “tyrosinase activity / melanin made from L-DOPA by cell extracts” value ([4]; listed as TH-212) was “absence of tyrosinase activity”. The inhibition at 100 µM [5] was 94%, the “production of TIMP-1 (TIMP-1 mRNA)” value [6] was “significantly stimulate” and the inhibition at 100 µM [7] was 98%. For the same compound, the inhibition at 100 µM [8] was 39%, the inhibition at 100 µM [9] was 53% and the “tyrosinase abundance (relative densitometric units)” value ([10]; human melanocyte extracts, 200 μM, 9 days, control approximately 7.25 RDU) was “about 3 RDU”. For the same compound, the “tyrosinase present (western immunoblot)” value ([10]; human melanocytes treated with 200 micromolar for 9 days) was “almost no detectable tyrosinase”, the inhibition at 100 µM [11] was 60% and the inhibition at 100 µM [12] was 93%. For the same compound, the inhibition at 100 µM [13] was 78% and the inhibition at 100 µM [14] was 80%.
